# Where two headings read alike, the source gives them in different places.
# Columns and labels:
# [1] = test system: A375 human melanoma cells; experiment: MTT viability analysis, TPP chain length and treatment time, A375 cells; details: for cytotoxicity at 0.5 µM: Homo sapiens, read-out: decrease in A375 cell viability
# Description: (§1) A375 human melanoma (catalog no. CRL1619™) cells were purchased from ATCC®. All cells were cultured in 150 cm^2 culture flasks at 37° C. in a humidified 5% CO2 incubator and detached with 0.25% trypsin-EDTA (GIBCO®, catalog no. 25200). A375 cells were cultured in high glucose DMEM medium (GIBCO®, catalog no. 11965) supplemented with 1% PenStrep (GIBCO®, catalog no. 15140) and 10% FBS (GIBCO®, catalog no. 26140). MeWo cells were cultured in 1:1 DMEM:F12 (VENDOR INFO) medium supplemented with 1% PenStrep and 10% FBS. Melanocytes were cultured in Ham's F10 medium (GIBCO®, catalog no 11550) supplemented with 7% horse serum (Hyclone®, catalog no. SH30074.03) and 50 ng/mL 12-myristate 13-acetate (TPA) (Sigma®, catalog no. P-8139). Experiments were performed with cells at or below passage twenty.
# (§2) MTT viability analysis of melanoma cells versus non-malignant melanocyte cells looking at the effect of variation in TPP molecular chain length and treatment time. A375 human melanoma cells in (A), MeWo human melanoma cells in (B), and non-malignant melanocyte cells in (C) were treated with TPP derivatives at a 0.5 μM concentration for 24 h, 48 h, and 72 h.
# melanoma tumor = experiment: Treatment of melanoma tumor bearing animals; format: in vivo
# [2] = test system: MeWo human melanoma cells; experiment: MTT viability analysis, TPP chain length and treatment time, MeWo cells; details: for cytotoxicity at 0.5 µM: Homo sapiens, MeWo, read-out: decrease in MeWo cell viability
# Description: as §1, §2
# [3] = test system: non-malignant melanocyte cells; experiment: MTT viability analysis, TPP chain length and treatment time, melanocytes; details: 0.5 μM
# Description: as §1, §2
smiles,measurement,setting,value
"CCCCCCCCCC[P+](c1ccccc1)(c1ccccc1)c1ccccc1 [decyl-TPP, decyltriphenylphosphonium]",decrease in A375 cell viability,"[1]; 0.5 μM, 24 h",no significant decrease
same,cytotoxicity at 0.5 µM,"[1]; A-375, 48 h",> 30%
same,cytotoxicity at 0.5 µM,"[1]; A-375, 72 h",> 30%
same,tolerability,melanoma tumor,well-tolerated
same,decrease in MeWo cell viability,"[2]; 0.5 μM, 24 h",no significant decrease
same,cytotoxicity at 0.5 µM,[2]; 48 h,> 30%
same,cytotoxicity at 0.5 µM,[2]; 72 h,> 30%
same,decrease in non-malignant melanocyte cell viability,[3]; 24 h,No significant decrease
same,decrease in non-malignant melanocyte cell viability,[3]; 48 h,No significant decrease
same,decrease in melanocyte viability,[3]; 72 h,not observed

# — patent publication US20150366884A1, “COMPOSITIONS AND METHODS FOR CANCER THERAPY” (UNIVERSITY OF IOWA RESEARCH FOUNDATION, priority 2013, published 2015)
